Experimental findings from patent US20250092016A1, “COMPOUNDS AND COMPOSITIONS FOR THE TREATMENT OF CORONAVIRAL RELATED DISEASES” (priority 2021, published 2025) are described below.

Molecules are shown by their SMILES. pIC50: −log10 of the molar value.

The target of assay [1] is T1, SARS-CoV-2 main protease (M^pro) (Severe acute respiratory syndrome coronavirus 2, UniProt P0DTD1). In words: Rapid-Fire MS Biochemical Assay measuring Mpro activity (12.5 nM Mpro). The note with it: Table 1A, Mpro inhibition, 5 μM substrate peptide, 30 min.
Assay [2] addresses T1, SARS-CoV-2 main protease (M^pro). In words: Rapid-Fire MS Biochemical Assay measuring Mpro activity (5 nM Mpro). The note with it: Table 1B, Mpro inhibition, 5 μM substrate peptide, 120 min, read-out: Rapid-Fire Assay IC50.

What is called pIC50 is the negative decadic logarithm of the IC50, by convention in mol/L.

Take `N#C[C@H]1CN(c2ccccc2)C(=O)N1c1cncc2ccccc12` (single isomer, unassigned) [Compound 1a]: the results for the pIC50 in assay [1] and in assay [2] were 8.05 and over 7.70, respectively.
`N#CC1CN(c2cccc(Cl)c2)C(=O)N1c1cncc2ccccc12` (racemic) [Compound 2, 1-(3-chlorophenyl)-3-(isoquinolin-4-yl)-2-oxoimidazolidine-4-carbonitrile]: the figures for the pIC50 in assay [1] and in assay [2] were 8.30 and over 7.70, respectively.
The corresponding values for `N#CC1CN(c2ccc(F)cc2)C(=O)N1c1cncc2ccccc12` (racemic) [Compound 6, 1-(4-fluorophenyl)-3-(isoquinolin-4-yl)-2-oxoimidazolidine-4-carbonitrile] are 7.57 and 6.70 to 7.70.
The corresponding values for `N#CC1CN(c2ccc(C(F)(F)F)cn2)C(=O)N1c1cncc2ccccc12` (racemic) [Compound 3, 3-(isoquinolin-4-yl)-2-oxo-1-(5-(trifluoromethyl)pyridin-2-yl)imidazolidine-4-carbonitrile] are 8.15 and over 7.70.
In the same order, the values of `N#CC1CN(c2ccc(Cl)cc2)C(=O)N1c1cncc2ccccc12` (centres unmarked) [Compound 5, 1-(4-chlorophenyl)-3-(isoquinolin-4-yl)-2-oxoimidazolidine-4-carbonitrile] are over 8.30 and over 7.70.
Regarding `N#C[C@H]1CN(c2cccc(Cl)c2)C(=O)N1c1cncc2ccccc12` (single isomer, unassigned) [Compound 2a], the pIC50 is over 8.30 in assay [1] and over 7.70 in assay [2].
In the same order, the values of `N#CC1CN(c2ccc(Cl)cn2)C(=O)N1c1cncc2ccccc12` (racemic) [Compound 10, 1-(5-chloropyridin-2-yl)-3-(isoquinolin-4-yl)-2-oxoimidazolidine-4-carbonitrile] are 8.30 and over 7.70.
In the same order, the values of `N#C[C@@H]1CN(c2ccccc2)C(=O)N1c1cncc2ccccc12` (single isomer, unassigned) [Compound 1b] are 5.19 and under 6.00.
In the same order, the values of `N#CC1CN(c2ccc(C(F)(F)F)cc2)C(=O)N1c1cncc2ccccc12` (racemic) [Compound 4, 3-(isoquinolin-4-yl)-2-oxo-1-(4-(trifluoromethyl)phenyl)imidazolidine-4-carbonitrile] are over 8.30 and over 7.70.
In the case of `N#CC1CN(c2ccccc2)C(=O)N1c1cncc2ccccc12` (racemic) [Compound 1, 3-(isoquinolin-4-yl)-2-oxo-1-phenylimidazolidine-4-carbonitrile], the pIC50 is 7.43 in assay [1] and 6.70 to 7.70 in assay [2].
The corresponding values for `N#CC1CN(c2cccc(F)c2)C(=O)N1c1cncc2ccccc12` (racemic) [Compound 7, 1-(3-fluorophenyl)-3-(isoquinolin-4-yl)-2-oxoimidazolidine-4-carbonitrile] are 8.22 and over 7.70.
The corresponding values for `N#C[C@@H]1CN(c2cccc(Cl)c2)C(=O)N1c1cncc2ccccc12` (single isomer, unassigned) [Compound 2b] are 5.52 and under 6.00.
`N#CC1CN(c2ccc(F)cn2)C(=O)N1c1cncc2ccccc12` (centres unmarked) [Compound 8, 1-(5-fluoropyridin-2-yl)-3-(isoquinolin-4-yl)-2-oxoimidazolidine-4-carbonitrile]: the pIC50 in assay [1] was 7.11; in assay [2], 6.70 to 7.70.
Turning to `N#Cc1cc(Cl)ccc1N1CC(C#N)N(c2cncc3ccccc23)C1=O` (racemic) [Compound 60, 1-(4-chloro-2-cyanophenyl)-3-(isoquinolin-4-yl)-2-oxoimidazolidine-4-carbonitrile], the pIC50 in assay [2] was 6.70 to 7.70.
Still for that read-out and setting: the figure for `N#C[C@@H]1CN(c2cnc(C(F)(F)F)nc2)C(=O)N1c1cncc2ccccc12` (single isomer, unassigned) [Compound 93b] is under 6.00.
Still for that read-out and setting: the result for `N#C[C@H]1CN(c2cc(F)cc(F)c2)C(=O)N1c1cncc2ccccc12` (single isomer, unassigned) [Compound 110a] reads over 7.70.
The same measure, in the same setting: the figure for `Cc1ccc(OC(F)F)cc1N1C[C@H](C#N)N(c2cncc3ccccc23)C1=O` (single isomer, unassigned) [Compound 101a] is over 7.70; for `N#Cc1cc(C(F)(F)F)ncc1N1C[C@H](C#N)N(c2cncc3ccccc23)C1=O` (single isomer, unassigned) [Compound 18a] it is over 7.70.
For the molecule `N#C[C@H]1CN(c2nccc(C(F)(F)F)n2)C(=O)N1c1cncc2ccccc12` (single isomer, unassigned) [Compound 49a], in assay [2], the pIC50 is 6.70 to 7.70.
